According to patent publication US20150031686A1, “PHENYL-OXAZOLYL DERIVATIVES, PREPARATION METHOD THEREOF, AND RELATED APPLICATION OF THE PHENYL-OXAZOLYL DERIVATIVES AS AN IMPDH INHIBITOR” (INSTITUTE OF MEDICINAL BIOTECHNOLOGY, CHINESE ACADEMY OF …, priority 2012, published 2015):
In brackets after ≈: the same amount, converted by molar mass.

Tests used:
[1] = test system: human lung adenocarcinoma cell A549; experiment: In vitro human lung adenocarcinoma cell A549 inhibitory activity (MTT); assay type: cell-based; settings: A549, 48 h; for IC50: Homo sapiens
Text: (§1) According to the progress in the studies on anticancer drugs using IMPDH as a target, the present invention measured inhibitory activities of the compounds of present invention against human hepatoma cell HepG2 and human lung adenocarcinoma cell A549, respectively, the measured results are shown in Table 5:
In Vitro Human Lung Adenocarcinoma Cell A549 Inhibitory Activity Measurement
Cell lines: human lung adenocarcinoma cell A549. Collect well growing tumor cells, prepare cell suspension with Ham's F12 culture solution containing 10% fetal calf serum medium, seed the suspension in 96-well plates, each well 100 μl suspension at 5000 cells/well, incubate at 37° C., under 5% CO2 atmosphere, 24 h later, add 2×drug solution […], each concentration in three parallel holes, set the blank control simultaneously. After culture for 48 h, add 20 μl (5 mg/ml) MTT to each well, culture 4 h, discard the supernatants. Measure absorbance (A) values using Bio-Rad 680 microplate reader at a detection wavelength of 570 nm, the survival rate (%) is calculated as follows: AsampleAblank control×100%. Use statistical software Graphpad Prism5 to calculate IC50. After primary screening of all samples, adjust the concentration gradient of the samples with IC50<100 μg/ml to do additional screenings, which are carried out with two parallel determinations.

[2] = test system: human hepatoma cell HepG2; experiment: In vitro human hepatoma cell HepG2 inhibitory activity (MTT); assay type: cell-based; settings: HepG2, 48 h; for IC50: Homo sapiens
Text: as §1
In Vitro Human Hepatoma Cell HepG2 Inhibitory Activity Measurement
Collect well growing tumor cells, prepare 6×10^4/ml cell suspension in RPMI-1640 or DMEM culture medium containing 10% FBS, seed in 96-well plates, 100 μl suspension each well, incubate at 37° C. under 5% CO2 atmosphere for 24 h, add the test solution (final concentration of drug: 0.625, 1.25, 2.5, 5.0, 10 μg/ml), for each concentration set three parallel holes, set positive control (cisplatin 10, 1, 0.1 μg/ml) and a blank control simultaneously. After culture for 48 h discard the supernatants, add into each well 10 μl MTT solution (5 mg/ml, prepared with RPMI-1640 medium), continue culturing for 4 It, add into each hole 100 μl acidified isopropanol cell lysate, culture overnight, measure absorbance (A) values with Bio-Tek MQX200 type microplate reader with the detection wavelength at 540 nm, and reference wavelength 450 nm. Calculate the inhibition rate as follows: inhibition rate=(Ablank−Asample)/Ablank control×100%. Use Graphpad Prism 5 statistical software to calculate IC50.

IMPDH = IMPDH inhibition activity (A340, IMP substrate, NAD); assay type: biochemical; settings: compound at 10 μg/mL
Protocol: Measurement of IMPDH Inhibitor Activity
In 96-well plates, use IMP as the substrate and NAD, NADH as chromogenic agents to determine the activity of the compounds described in this invention as IMPDH inhibitor. Add 2 μl of each of the tested sample solution, 20 μl enzyme extract and 30 μl IMP into a sample well in the 96-well plates; 2 μl DMSO and 30 μl IMP solution into a control well; 2 μl DMSO and 20 μl IMPDH buffer instead of the enzyme extract and 30 μl IMP solution into a blank well. Keep plates at constant 37° C. for 15 min, measure absorbance values A340 (OD1) of the solutions in various wells; subsequently, add into each well with 50 μl NAD, keep at constant 37° C. for 50 min, then measure A340 (OD2) values. Calculate IMPDH inhibition rates of samples as follows: Inhibition (%)=[(OD2−OD1)control−(OD2−OD1)Sample]/[(OD2−OD1)control−(OD2−OD1)Blank]×100%.

[3] = test system: Coxsackie virus type B3 (COX-B3); experiment: Anti-Coxsackie virus type B3 (COX-B3) activity, CPE in Vero cells; assay type: cell-based; settings: Reed-Muench
Protocol: (§2) With Vero (African green monkey kidney) cells as viral hosts, inhibitory effects of the compounds of present invention on the grades of pathological lesions by coxsackievirus B3 (COX-B3), B6 (COX-B6) viruses in Vero cells were determined. The measured results of viral inhibitory activity of the compounds are shown in Table 3 and Table 4; wherein RBV is the control drug ribavirin. The inhibitory activities of the measured compounds against coxsackievirus B3, B6 were stronger than the control.
(§3) Screening of Anti-B3, B6 Type Coxsackie Viruses (COX-B3, COX-B6) Activity of the Samples
(§4) Prepare stock solutions of COX-B3 (or COX-B6) virus strains as well as tested compounds in DMSO before use. Before tests, dilute the stock solution with culture solution into a certain concentration and then dilute 3 times to make a total of eight dilutions. Use ribavirin (RBV) as positive control. Test procedures are as follows: seed Vero cells into 96-well culture plates, infect with 10^−5 Coxsackie virus of B3 (or B6) type, 24 hours later; adsorb subsequently for 2 hours, then discard the virus solution, add in the sample compounds and the positive control according to the abovementioned dilutions, set cell control wells and virus control wells simultaneously. When the cytopathic effect (CPE) of cells in the virus control wells reach 4+, observe CPE of the cells in each group. Use Reed-Muench method to calculate 50% inhibitory concentration (IC50) of the sample compounds against coxsackie virus B3 (or B6) type.

[4] = test system: Coxsackie virus type B6 (COX-B6); experiment: Anti-Coxsackie virus type B6 (COX-B6) activity, CPE in Vero cells; assay type: cell-based; settings: Reed-Muench
Protocol: as §2, §3, §4

Structure (SMILES) | IC50 [2] [µg/mL] | IC50 [3] [µg/mL] | IC50 [4] [µg/mL] | IC50 [1] [µg/mL] | A549 IC50 [1] [µg/mL] | HepG2 IC50 [2] [µg/mL] | inhibition rate (%) 10 μg/mL (IMPDH) [%]
N.N.[Cl][Pt][Cl] [Cisplatin, reference compound] | – | – | – | – | 263.4 | 104.1 | –
COc1cc(NCc2cccs2)ccc1-c1cnco1 [Compound 1, N-(thien-2-ylmethyl)-3-methoxy-4-(oxazol-5-yl) aniline] | 0.95 (≈ 3.32 µM) | 0.44 (≈ 1.54 µM) | 0.44 (≈ 1.54 µM) | – | – | – | 65.7
COc1cc(NCc2ccc(-c3ccccc3)s2)ccc1-c1cnco1 [Compound 6, N-(5-phenylthien-2-ylmethyl)-3-methoxy-4-(oxazol-5-yl) aniline] | 31.8 (≈ 87.6 µM) | 0.47 (≈ 1.3 µM) | 0.27 (≈ 0.745 µM) | 16.9 (≈ 46.6 µM) | – | – | –
COc1cc(NCc2cc3ccccc3s2)ccc1-c1cnco1 [Compound 10, N-(benzothien-2-ylmethyl)-3-methoxy-4-(oxazol-5-yl) aniline] | 21.7 (≈ 64.5 µM) | 0.27 (≈ 0.803 µM) | 0.36 (≈ 1.07 µM) | 26.8 (≈ 79.5 µM) | – | – | –
COc1cc(NCc2ccsc2)ccc1-c1cnco1 [Compound 11, N-(thien-3-ylmethyl)-3-methoxy-4-(oxazol-5-yl) aniline] | 42.1 (≈ 147 µM) | 0.44 (≈ 1.54 µM) | 1.33 (≈ 4.64 µM) | 29.7 (≈ 104 µM) | – | – | 69.6
COc1cc(NCc2csc3ccccc23)ccc1-c1cnco1 [Compound 20, N-(benzothien-3-ylmethyl)-3-methoxy-4-(oxazol-5-yl) aniline] | 2.88 (≈ 8.57 µM) | 0.64 (≈ 1.9 µM) | 0.82 (≈ 2.44 µM) | 11.6 (≈ 34.5 µM) | – | – | 47.7
COc1ccc(-c2cnco2)cc1NCc1cccs1 [Compound 21, N-(thien-2-ylmethyl)-2-methoxy-5-(oxazol-5-yl) aniline] | > 100 | 2.47 (≈ 8.63 µM) | 3.25 (≈ 11.3 µM) | 122 (≈ 427 µM) | – | – | –
COc1ccc(-c2cnco2)cc1NCc1ccc(C)s1 [Compound 22, N-(5-methylthien-2-ylmethyl)-2-methoxy-5-(oxazol-5-yl) aniline] | 9.9 (≈ 33 µM) | 0.82 (≈ 2.73 µM) | 3.83 (≈ 12.8 µM) | 26.2 (≈ 87.2 µM) | – | – | –
COc1ccc2[nH]cc(CNc3ccc(-c4cnco4)c(OC)c3)c2c1 [Compound 52, N-(5-methoxy-1H-indol-3-ylmethyl)-3-methoxy-4-(oxazol-5-yl) aniline] | – | 3.25 (≈ 9.3 µM) | > 2.47 | – | – | – | –
COc1cc(NCc2scnc2C)ccc1-c1cnco1 [Compound 54, N-(4-methylthiazol-5-ylmethyl)-3-methoxy-4-(oxazol-5-yl) aniline] | 53.3 (≈ 177 µM) | 1.43 (≈ 4.74 µM) | 3.18 (≈ 10.6 µM) | 29.5 (≈ 97.8 µM) | – | – | –
COc1cc(NCc2cncs2)ccc1-c1cnco1 [Compound 55, N-(thiazol-5-ylmethyl)-3-methoxy-4-(oxazol-5-yl) aniline] | 42.1 (≈ 147 µM) | 1.88 (≈ 6.54 µM) | 3.25 (≈ 11.3 µM) | 31.9 (≈ 111 µM) | – | – | –
COc1cc(NCc2ccncc2)ccc1-c1cnco1 [Compound 56, N-(pyridin-4-ylmethyl)-3-methoxy-4-(oxazol-5-yl) aniline] | – | 5.75 (≈ 20.4 µM) | 4.28 (≈ 15.2 µM) | – | – | – | 37.4
COc1cc(NCc2cccnc2Cl)ccc1-c1cnco1 [Compound 59, N-(2-chloropyridin-3-ylmethyl)-3-methoxy-4-(oxazol-5-yl) aniline] | – | 1.9 (≈ 6.02 µM) | 1.05 (≈ 3.33 µM) | – | – | – | –
COc1ccc(CNc2ccc(-c3cnco3)c(OC)c2)cn1 [Compound 60, N-(6-methoxy-pyridin-3-ylmethyl)-3-methoxy-4-(oxazol-5-yl) aniline] | – | 0.57 (≈ 1.83 µM) | 3.15 (≈ 10.1 µM) | – | – | – | –
COc1cc(NC/C=C/c2ccccc2)ccc1-c1cnco1 [Compound 62] | > 100 | 0.63 (≈ 2.06 µM) | 1.43 (≈ 4.67 µM) | 32 (≈ 105 µM) | – | – | –
COc1cc(NN=C(C#N)C#N)ccc1-c1cnco1 [Compound 66] | – | 1.43 (≈ 5.35 µM) | 4.28 (≈ 16 µM) | – | – | – | –
COc1cc(NS(C)(=O)=O)ccc1-c1cnco1 [Compound 68] | – | 1.53 (≈ 5.7 µM) | 7.41 (≈ 27.6 µM) | – | – | – | –
COc1cc(NC/C=C(/C)CCC=C(C)C)ccc1-c1cnco1 [Compound 71, N-(3,7-dimethyl-octa-2,6-dienyl)-3-methoxy-4-(oxazol-5-yl) aniline] | – | 1.25 (≈ 3.83 µM) | > 0.82 | – | – | – | –
NC(=O)c1ncn([C@@H]2O[C@H](CO)[C@@H](O)[C@H]2O)n1 [RBV, ribavirin, reference compound] | – | 222 (≈ 910 µM) | 222 (≈ 910 µM) | – | – | – | –

Now from value to compound, other results behind:

IC50 [2] [µg/mL] | IC50 [3] [µg/mL] | IC50 [4] [µg/mL] | IC50 [1] [µg/mL] | Structure (SMILES) | A549 IC50 [1] [µg/mL] | HepG2 IC50 [2] [µg/mL] | inhibition rate (%) 10 μg/mL (IMPDH) [%]
7.95 (≈ 26.5 µM) | 0.23 (≈ 0.766 µM) | 0.63 (≈ 2.1 µM) | 18.6 (≈ 61.9 µM) | COc1cc(NCc2ccc(C)s2)ccc1-c1cnco1 [Compound 2, N-(5-methylthien-2-ylmethyl)-3-methoxy-4-(oxazol-5-yl) aniline] | – | – | 68.7
20.9 (≈ 66.5 µM) | 0.35 (≈ 1.11 µM) | 1.43 (≈ 4.55 µM) | 10.7 (≈ 34.2 µM) | CCc1ccc(CNc2ccc(-c3cnco3)c(OC)c2)s1 [Compound 3, N-(5-ethylthien-2-ylmethyl)-3-methoxy-4-(oxazol-5-yl) aniline] | – | – | –
83.4 (≈ 228 µM) | 0.47 (≈ 1.29 µM) | 0.44 (≈ 1.2 µM) | 16.5 (≈ 45.2 µM) | COc1cc(NCc2ccc(Br)s2)ccc1-c1cnco1 [Compound 5, N-(5-bromothien-2-ylmethyl)-3-methoxy-4-(oxazol-5-yl) aniline] | – | – | 58.9
> 100 | > 66.7 | 18.5 (≈ 56 µM) | > 100 | COc1cc(NCc2ccc(C(=O)O)s2)ccc1-c1cnco1 [Compound 7, 5-(3-methoxy-4-oxazol-5-yl-anilinomethyl)-thien-2-yl carboxylic acid] | – | – | –
– | 12.8 (≈ 45.1 µM) | 12.8 (≈ 45.1 µM) | – | COc1cc(/N=C/c2cccs2)ccc1-c1cnco1 [Compound 9, N-(thien-2-ylmethylene)-3-methoxy-4-(oxazol-5-yl) aniline] | – | – | –
40 (≈ 148 µM) | 0.63 (≈ 2.33 µM) | 1.88 (≈ 6.96 µM) | 22.8 (≈ 84.2 µM) | COc1cc(NCc2ccco2)ccc1-c1cnco1 [Compound 41, N-(furan-2-ylmethyl)-3-methoxy-4-(oxazol-5-yl) aniline] | – | – | –
0.897 (≈ 2.86 µM) | 0.82 (≈ 2.62 µM) | 1.53 (≈ 4.88 µM) | 4.84 (≈ 15.4 µM) | COc1cc(/N=C/c2ccc([N+](=O)[O-])o2)ccc1-c1cnco1 [Compound 49, N-(5-nitrofuran-2-methylidene)-3-methoxy-4-(oxazol-5-yl) aniline] | – | – | –
– | 4.28 (≈ 14.4 µM) | 17.2 (≈ 58.2 µM) | – | COc1cc(/N=C/c2ccc(F)cc2)ccc1-c1cnco1 [Compound 64, N-(4-Fluorophenylmethylidene)-3-methoxy-4-(oxazol-5-yl)-aniline] | – | – | –
– | 1.23 (≈ 4.04 µM) | 5.75 (≈ 18.9 µM) | – | COc1cc(/N=C/C=C/c2ccccc2)ccc1-c1cnco1 [Compound 65, N-(phenylpropen-1-ylidene)-3-methoxy-4-(oxazol-5-yl)-aniline] | – | – | 32.0
